Test results as given in PubChem BioAssay (NCI).
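The compound was tested at five concentrations on cells cultured in 96-well plates, with a 48-hour exposure period. GI50 = concentration required for 50% inhibition of growth. TGI is the concentration that stops growth completely.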 Where a SMILES comes first, the peptide text is derived from it. The star is where a group is joined. Cbz = O=C(OCc1ccccc1)*

How the values were obtained:
Test in all cases: NCI anticancer screen, dose series, 48 h
[1] = test system: CCRF-CEM leukemia
[2] = test system: OVCAR-5 ovarian
[3] = test system: SNB-75 CNS
[4] = test system: 786-0 renal
[5] = test system: LOX IMVI melanoma
[6] = test system: NCI-H522 lung
[7] = test system: HL-60(TB) leukemia
[8] = test system: OVCAR-4 ovarian
[9] = test system: SK-OV-3 ovarian

| SMILES | TGI [1] | TGI [2] | TGI [3] | TGI [4] | TGI [5] | TGI [6] | TGI [7] | TGI [8] | TGI [9] | GI50 [1] | GI50 [8] | GI50 [2] | GI50 [3] | GI50 [5] | GI50 [6] | GI50 [9] | GI50 [7] |
| --- | --- | --- | --- | --- | --- | --- | --- | --- | --- | --- | --- | --- | --- | --- | --- | --- | --- |
| CCOC(=O)c1cn2c(ccc3sc4ccccc4c(=O)c32)n1 | > 100 µM | > 100 µM | > 100 µM | > 100 µM | > 100 µM | > 100 µM | > 100 µM |  |  |  |  |  |  |  |  |  |  |
| CCCCCCCCCCCCCCCCOc1ccc(/C=C/C2=[N+](CCCl)CCO2)cc1 | > 100 µM | > 100 µM | > 100 µM | > 100 µM | > 100 µM | > 100 µM | 98.6 µM | > 100 µM | > 100 µM |  |  |  |  |  |  |  |  |
| CC(C)N(/C(F)=N\C(=O)Nc1ccccc1C(F)(F)F)C(C)C | > 100 µM | > 100 µM | > 100 µM | > 100 µM | > 100 µM |  | > 100 µM |  | > 100 µM |  |  |  |  |  |  |  |  |
| O=C1CCCC2=C1CC1=C(CCCC1=O)N2c1cccc([N+](=O)[O-])c1 | > 100 µM | > 100 µM | > 100 µM | > 100 µM | > 100 µM |  | > 100 µM | > 100 µM | > 100 µM |  |  |  |  |  |  |  |  |
| O=c1[nH]c(=O)n2n1C1C=CC2CC1 | > 100 µM | > 100 µM | > 100 µM | > 100 µM | > 100 µM |  | > 100 µM |  | > 100 µM |  |  |  |  |  |  |  |  |
| O=[N+]([O-])c1ccc(O)c(C=NCC2CCCN3CCCCC23)c1 (stereo not drawn) |  | > 100 µM | > 100 µM | > 100 µM | > 100 µM | > 100 µM |  |  | > 100 µM |  |  |  |  |  |  |  |  |
| COc1ccc(-c2nc3cc(C(F)(F)F)ccc3n2CC2CCCN3CCCCC23)cc1 (stereo not drawn) | 31.4 µM | 62.9 µM | 28.8 µM | 35.6 µM | 28.3 µM | 29.2 µM | 30.6 µM | 39.7 µM | 33.7 µM |  |  |  |  |  |  |  |  |
| CCOC(=O)N1N(c2ccccc2)C(=O)C1(c1ccccc1)c1ccccc1 | > 100 µM | > 100 µM |  | > 100 µM | > 100 µM | > 100 µM | > 100 µM | > 100 µM | > 100 µM |  |  |  |  |  |  |  |  |
| O=P1(Oc2ccccc2)NCc2ncccc2O1 (stereo not drawn) | > 100 µM | > 100 µM | > 100 µM | > 100 µM | > 100 µM |  |  | > 100 µM |  |  |  |  |  |  |  |  |  |
| CN(C)/C=C/c1c2c(nc3ccccc13)C(=O)c1ccccc1C2=O | 3.36 µM | 8.45 µM |  | 5.51 µM | 0.294 µM | 4.61 µM |  | 5.42 µM | 11.7 µM |  |  |  |  |  |  |  |  |
| CCOC(=O)CNC(=O)C(C)NC(=O)C(NC(=O)OCc1ccccc1)C(C)C (stereo not drawn) (Cbz-Val-Ala-Gly-OEt; configuration not given here) |  | > 100 µM | > 100 µM | > 100 µM |  | > 100 µM |  |  | > 100 µM |  |  |  |  |  |  |  |  |
| CC(=O)c1ccccc1NS(=O)(=O)c1ccc2nc(C)n(NS(=O)(=O)c3ccccc3C(C)=O)c(=O)c2c1 | > 100 µM | > 100 µM | > 100 µM | > 100 µM | > 100 µM | > 100 µM | > 100 µM | > 100 µM | > 100 µM |  |  |  |  |  |  |  |  |
| C[C@]12CCc3sc(-c4cccc(F)c4)nc3C1=CC[C@@H]1[C@@H]2CC[C@]2(C)C(=O)CC[C@@H]12 | 9.58 µM | 18.5 µM | > 100 µM |  | 3.36 µM | 6.35 µM | 5.35 µM | > 100 µM | 9.13 µM | 2.45 µM | 5.51 µM | 2.68 µM | 3.43 µM | 1.74 µM | 2.4 µM | 2.91 µM | 2 µM |
| Brc1ccc(-c2cc(-c3ccc4c(c3)OCO4)c(-c3cccs3)n2Cc2ccccc2)cc1 | > 100 µM |  | > 100 µM | > 100 µM |  |  | > 100 µM | > 100 µM | > 100 µM |  |  |  |  |  |  |  |  |
| CCOC(=O)C1=C(C)NC(C)=C(C(=O)OCC)C1c1ccc(C)cc1 |  | > 100 µM | > 100 µM | 45.8 µM | > 100 µM | 94.2 µM |  | > 100 µM | > 100 µM |  |  |  |  |  |  |  |  |
| S=C(c1c[nH]c2ccccc12)N1CCCCC1 | > 100 µM | > 100 µM |  | > 100 µM | > 100 µM |  | > 100 µM |  | > 100 µM |  |  |  |  |  |  |  |  |
| Oc1ccccc1-c1nn2c(CCCCCCCCc3nnc4sc(-c5ccccc5O)nn34)nnc2s1 | 39.3 µM | > 76.6 µM | > 86.1 µM | > 100 µM | > 64.1 µM | 82.5 µM | 77.9 µM | > 100 µM | 83.8 µM |  |  |  |  |  |  |  |  |
| Cc1[nH]c(=O)nc(N(CCO)/N=C/c2ccc(Cl)cc2)c1C(=O)Nc1ccc(Cl)cc1 | > 100 µM | > 100 µM | > 100 µM | > 100 µM | > 100 µM | > 100 µM | > 100 µM | > 100 µM | > 100 µM |  |  |  |  |  |  |  |  |
| CCOP(C)(=O)/C(Cc1ccc(OC)c(OC)c1)=N\O (stereo not drawn) | > 100 µM | > 100 µM | > 100 µM | > 100 µM | > 100 µM | > 100 µM | > 100 µM | > 100 µM | > 100 µM |  |  |  |  |  |  |  |  |
| Cc1nn(-c2ccccc2)c2nc3ccc(Cl)cc3c(-c3ccccc3)c12 | > 100 µM | > 100 µM | > 100 µM | > 100 µM | > 100 µM | > 100 µM |  | > 100 µM | > 100 µM |  |  |  |  |  |  |  |  |
| O=S(=O)(O)c1ccccc1N=Nc1ccc(N=Nc2c(O)ccc3ccccc23)c(S(=O)(=O)O)c1 | > 100 µM | > 100 µM | > 100 µM | > 100 µM |  | > 100 µM |  | > 100 µM | > 100 µM |  |  |  |  |  |  |  |  |
| COc1cc2cc(C(=O)N3CC(CCl)c4c3cc(O)c3ccccc43)[nH]c2c(OC)c1OC (stereo not drawn) | < 0.005 µM | 0.549 µM | < 0.005 µM | 0.506 µM | 0.625 µM | 0.155 µM | < 0.005 µM |  | 0.996 µM |  |  |  |  |  |  |  |  |
| CCc1c(C)c2ccc(OCC(=O)N=Nc3c(O)[nH]c4ccccc34)c(C)c2oc1=O | > 33.3 µM | > 33.3 µM |  |  | > 7.31 µM | 1.81 µM |  | 1.86 µM |  | 1.34 µM | 0.788 µM | > 33.3 µM |  | 0.832 µM | 0.77 µM |  |  |
